The record followed here is US9549552B2, “Active compound combinations having insecticidal properties” (BAYER CROPSCIENCE AKTIENGESELLSCHAFT, priority 2013, dated 2017).

Holding throughout (type): in vivo
Settings in all cases: mortality

The subject of experiment [1] is caterpillars of the fall army worm (Spodoptera frugiperda). Briefly: Spodoptera frugiperda spray test (Example C1, cotton leaves). The procedure:
(§1) Solvent: 7 parts by weight of dimethylformamide
(§2) Emulsifier: alkylaryl polyglycol ether
To produce a suitable preparation of active compound, 1 part by weight of active compound is mixed with the stated amount of solvent and is diluted with water, containing an emulsifier concentration of 1000 ppm, to the desired concentration. Further test concentrations are prepared by dilution with emulsifier containing water Ammonium salt and/or penetration enhancer in a dosage of 1000 ppm are added if necessary.
Cotton leaves (Gossypium hirsutum) are treated by being sprayed with the preparation of the active compound of the desired concentration and are infested with caterpillars of the fall army worm (Spodoptera frugiperda).
After the specified period of time mortality in % is determined. 100% means all the caterpillars have been killed and 0% means none of the caterpillars have been killed. The mortality values determined thus are recalculated using the Colby-formula (see sheet 1).

The subject of experiment [2] is mustard beetle larvae (Phaedon cochleariae). Briefly: Phaedon cochleariae spray test (Example A3, Chinese cabbage leaf disks). As to the method: (§3) To produce a suitable preparation of active compound, 1 part by weight of active compound is mixed with the stated amount of solvents and is diluted with water, containing an emulsifier concentration of 1000 ppm, to the desired concentration. Further test concentrations are prepared by dilution with emulsifier containing water.
Chinese cabbage (Brassica pekinensis) leaf disks are sprayed with a preparation of the active ingredient of the desired concentration. Once dry, the leaf disks are infested with mustard beetle larvae (Phaedon cochleariae).
(§4) After the specified period of time, mortality in % is determined 100% means all beetle larvae have been killed and 0% means none of the beetle larvae have been killed. The mortality values determined thus are recalculated using the Colby-formula (see sheet 1).

The test system is the same in experiment [3]. Briefly: Phaedon cochleariae spray test (Example A2, cabbage leaves). The procedure: as §1, §2
To produce a suitable preparation of active compound, 1 part by weight of active compound is mixed with the stated amount of solvent and is diluted with water, containing an emulsifier concentration of 1000 ppm, to the desired concentration. Further test concentrations are prepared by dilution with emulsifier containing water Ammonium salt and/or penetration enhancer in a dosage of 1000 ppm are added to the desired concentration if necessary.
Cabbage leaves (Brassica oleracea) are treated by being sprayed with the preparation of the active compound of the desired concentration and are infested with mustard beetle larvae (Phaedon cochleariae).
After the specified period of time mortality in % is determined. 100% means all the beetle larvae have been killed and 0% means none of the beetle larvae have been killed. The mortality values determined thus are recalculated using the Colby-formula (see sheet 1).

Experiment [4] relates to two spotted spidermite (Tetranychus urticae). Briefly: Tetranychus urticae spray test, OP-resistant (Example B, French beans). The procedure:
(§5) To produce a suitable preparation of active compound, 1 part by weight of active compound is mixed with the stated amount of solvent and emulsifier, and the concentrate is diluted with emulsifier-containing water to the desired concentration. To produce a suitable preparation of a spore suspension the spores are diluted with emulsifier-containing water to the desired concentration.
French beans (Phaseolus vulgaris) which are heavily infested with all stages of the two spotted spidermite (Tetranychus urticae), are sprayed with a preparation of the active ingredient of the desired concentration.
After the specified period of time, mortality in % is determined 100% means all spider mites have been killed and 0% means none of the spider mites have been killed. The mortality values determined thus are recalculated using the Colby-formula (see sheet 1).

The subject of experiment [5] is mustard beetle larvae (Phaedon cochleariae). As to the kind of experiment: Phaedon cochleariae spray test (Example A1, Chinese cabbage leaf disks). The procedure: as §5
Chinese cabbage (Brassica pekinensis) leaf-disks are sprayed with a preparation of the active ingredient of the desired concentration. Once dry, the leaf disks are infested with mustard beetle larvae (Phaedon cochleariae).
as §4

In experiment [6] the test system is fall armyworm larvae (Spodoptera frugiperda). Briefly: Spodoptera frugiperda spray test (Example C3, maize leaf sections). The procedure: To produce a suitable preparation of the active compound, 1 part by weight of active compound is mixed with the stated amount of solvent and emulsifier, and the concentrate is diluted with emulsifier-containing water to the desired concentration. To produce a suitable preparation of a spore suspension the spores are diluted with emulsifier-containing water to the desired concentration.
(§6) Maize (Zea mays) leaf sections are sprayed with a preparation of the active ingredient of the desired concentration. Once dry, the leaf sections are infested with fall armyworm larvae (Spodoptera frugiperda).
(§7) After the specified period of time, mortality in % is determined 100% means all caterpillars have been killed and 0% means none of the caterpillars have been killed. The mortality values determined thus are recalculated using the Colby-formula (see sheet 1).

Experiment [7] has the same test system. As to the kind of experiment: Spodoptera frugiperda spray test (Example C2, maize leaf sections). The procedure: as §3, §6, §7

SMILES strings stand for the structures.

As for `CCOCn1c(-c2ccc(Cl)cc2)c(C#N)c(Br)c1C(F)(F)F` [Chlorfenapyr], the “Efficacy in % after 3 d” value in experiment [1] (0.8 ppm) stood at 0%. The “Efficacy in % after 2 d” value in experiment [1] (1.6 ppm) came out at 0%; in experiment [3] (4 ppm), 20%. Moreover, in experiment [2] (4 g ai/ha), the “Efficacy in % after 6 d” value is recorded as 0%. Besides, the “Efficacy in % after 1 d” value in experiment [3] (8 ppm) stood at 5%.

Regarding `CCOC(=O)OC1=C(c2cc(C)ccc2C)C(=O)N[C@]12CC[C@@H](OC)CC2` [Spirotetramat], the “Efficacy in % after 6 d” value in experiment [4] (0.8 g ai/ha) amounted to 30%; in experiment [4] (2 g ai/ha) it was 20%; in experiment [5] (0.8 g ai/ha), 0%; in experiment [6] (15 g ai/ha), 0%.

With `COC(=O)N(C(=O)N1CO[C@@]2(C(=O)OC)Cc3cc(Cl)ccc3C2=N1)c1ccc(OC(F)(F)F)cc1` [Indoxacarb], the “Efficacy in % after 2 d” value is recorded as 10% in experiment [1] (0.2 ppm), 0% in experiment [7] (0.1 g ai/ha) and 50% in experiment [2] (8 g ai/ha). The “Efficacy in % after 3 d” value in experiment [1] (0.2 ppm) amounted to 20%. Besides, the “Efficacy in % after 6 d” value came out at 0% in experiment [7] (0.1 g ai/ha), 0% in experiment [2] (4 g ai/ha) and 50% in experiment [2] (8 g ai/ha).

Consider `O=C(NC(=O)c1c(F)cccc1F)Nc1cc(Cl)c(Oc2ncc(C(F)(F)F)cc2Cl)c(Cl)c1` [Chlorfluazuron], for which, in experiment [1] (0.4 ppm), the “Efficacy in % after 2 d” value came to 0% and the “Efficacy in % after 3 d” value is 30%. In addition, in experiment [7] (2 g ai/ha), the “Efficacy in % after 2 d” value worked out at 0% and the “Efficacy in % after 6 d” value was 0%. The “Efficacy in % after 6 d” value in experiment [2] (8 g ai/ha) is given as 0%.

Consider `Cc1cc(C(F)(C(F)(F)F)C(F)(F)F)ccc1NC(=O)c1cccc(Cl)c1C(=O)NC(C)(C)C#N` [(I-5)], for which the “Efficacy in % after 2 d” value in experiment [1] (0.04 ppm) is on record as 0%; in experiment [1] (0.08 ppm), 10%; in experiment [7] (1 g ai/ha), 0%; in experiment [2] (4 g ai/ha) it was 0%; in experiment [3] (0.8 ppm) it was 0%. Further, the “Efficacy in % after 3 d” value in experiment [1] (0.04 ppm) is on record as 0%; in experiment [1] (0.08 ppm), 20%. For the same compound, the “Efficacy in % after 6 d” value was found to be 33% in experiment [7] (1 g ai/ha); 0% in experiment [4] (2 g ai/ha); 0% in experiment [4] (4 g ai/ha); 0% in experiment [4] (10 g ai/ha); 0% in experiment [5] (4 g ai/ha); 0% in experiment [2] (2 g ai/ha). In addition, the results for the “Efficacy in % after 6 d” value in experiment [2] (4 g ai/ha), in experiment [6] (0.25 g ai/ha) and in experiment [6] (3 g ai/ha) were 0%, 0% and 33%, respectively. Further, the “Efficacy in % after 1 d” value in experiment [3] (1.6 ppm) is on record as 0%.
